{
  "source": "patent US8222008B2",
  "about": "“Methods and compositions for treating cancer” (The Administrators of The Tulane Educational Fund, priority 2003, dated 2012)",
  "key": {"GM005399 cells": {"system": "GM005399 cells", "experiment": "Apoptosis on serum withdrawal, CaspACE", "format": "cell-based, human", "settings": "serum withdrawal and CDME", "description": "Induction of apoptosis and assays for its detection were performed using commercially available reagents. Normal and cystinotic fibroblasts were matched for passage number (±3) and cell density, and then exposed to an apoptotic trigger. One apoptotic trigger used was TNF-a (30 ng/mL) with actinomycin D (2.5 μg/mL) for 16 hours. Another trigger was anti-Fas antibody (500 ng/mL) with actinomycin D (2.5 μg/mL) for 16 hours. A third trigger to induce apoptosis in the cells was Ultraviolet B light (60 mJ). See, e.g., previously described protocols of Aggarwal B B, 1992 Immunol. Ser., 56:61-78; Higuchi M. et al, 1995 J. Immunol. Meth., 178:173-181; Itoh N, et al, 1991 Cell, 66:233-243; Itoh N. et al, 1993 J. Biol. Chem., 268:10932-10937. Serum withdrawal was also used as a apoptotic stimulus (Lieberthal W, et al, 1998 Am. J. Physiol. 275:F691-F702; Verzola D. et al, 2001 Exp Nephrol., 9:366-371; Iglesias J. et al, 1999 Am. J. Physiol. 277:F711-F712; Kulkarni G V, et al, 1994 J. Cell Sci., 107:1169-1179), in which case the cells were incubated in F12 medium without serum for 24 hours and then analyzed for apoptosis.\n1. […] The cells were visually enumerated by fluorescence microscopy, scoring a minimum of five fields (250 to 300 cells) for fluorescence in triplicate followed by counting all cells in the same field by light microscopy, with a minimum of 750 cells scored per condition. […]"}, "MCF-7 (ER+)": {"system": "MCF-7 (ER+)", "experiment": "Apoptosis in breast cancer cell lines, CaspACE assay with flow cytometry", "format": "cell-based, human", "settings": "CDME 500 μM, 16 hours", "from_the_text": "(§1) The apoptotic effect of CDME was compared to that of tamoxifen using the CaspACE™ assay system (Promega) and conventional flow cytometry techniques.\n(§2) All cell lines were obtained from the American Type Culture Collection, P.O. Box 1549, Manassas, Va., 20108 unless otherwise indicated. The cell lines studied were estrogen receptor-negative breast cancer cell lines MDA-MB-231 (ATCC Accession No. HTB-26) and MDA-MB-468 (ATCC Accession No. HTB-132) and estrogen receptor-positive breast cancer cell lines, MCF-7 (ATCC Accession No. HTB-22) and T-47D (ATCC Accession No. HTB-133).\n(§3) All cell lines were grown on the bottom of 12-well flasks in Gibco RPMI-1640, until they reached the confluency of about 50%. After that, the medium was exchanged with DMEM (Sigma, D-5030), supplemented with 10% charcoal-treated FBS.\n(§4) After four days (at confluency of about 75%), cells were treated by exposure to either CDME (500 μM) or tamoxifen (100 μM) or neither for 16 hours at 37° C. CaspACE™ assay analysis of the treated and control cells was performed as described in Example 2 and measured via flow cytometry. Note that the dosage of tamoxifen was a maximum positive control dose, higher than that normally administered for chemotherapy."}, "MDA-MB-231 (ER−)": {"system": "MDA-MB-231 (ER−)", "experiment": "Apoptosis in breast cancer cell lines, CaspACE assay with flow cytometry", "format": "cell-based, human", "settings": "CDME 500 μM, 16 hours", "from_the_text": "as §1, §2, §3, §4"}, "MDA-MB-468 (ER−)": {"system": "MDA-MB-468 (ER−)", "experiment": "Apoptosis in breast cancer cell lines, CaspACE assay with flow cytometry", "format": "cell-based, human", "settings": "CDME 500 μM, 16 hours", "from_the_text": "as §1, §2, §3, §4"}, "T-47D (ER+)": {"system": "T-47D (ER+)", "experiment": "Apoptosis in breast cancer cell lines, CaspACE assay with flow cytometry", "format": "cell-based, human", "settings": "CDME 500 μM, 16 hours", "from_the_text": "as §1, §2, §3, §4"}, "black mice": {"system": "black mice", "experiment": "Toxicity study of CDME in mice", "format": "in vivo, mouse", "settings": "intraperitoneal injection, 500 μL in PBS", "description": "(§5) CDME was evaluated in mice for cystine generation in response to varying doses as follows: A stock solution of CDME in PBS was prepared having a concentrations of 1.8 g CDME/500 μL PBS. The stock solution was diluted to generate solutions for administration. 500 μL of diluted solutions were injected intraperitoneally into black mice (body mass ˜0.03 kg). All injections were performed in duplicate.\nMice given effective dosages of 5,000 mg CDME/kg body mass or higher died. […] The CDME-injected mice contained close to 100-fold increases in intralysosomal cystine."}, "liver of black mice": {"system": "liver of black mice", "experiment": "Liver cystine concentration after CDME injection (CBP and BCA assays)", "format": "in vivo, mouse", "description": "Intracellular lysosomal free cystine was determined using a cystine binding protein (CBP) assay (Oshima et al, 1974 J. Biol. Chem., 249:6033-6039). CBP was procured from Riverside Scientific. The assay has a sensitivity of 0.1 μM. Total cell protein was determined by a modification of the Lowry method (Lowry O. et al 1951 J. Biol. Chem., 193:265-275). Statistical analyses were performed using paired t test for means with SSPS for Windows. Results are mean+/−1.0 SD (FIG. 3).\nas §5\nFollowing administration of the solutions of Table 6, the endogenous cystine concentrations in two organs (kidney and liver) were examined for the 6 mice, i.e., the CDME-injected mice as well as black, heterozygous, and wild-type control mice. The analysis was performed using the cystine binding protein CBP assay of Example 1 and the Bicinchoninic Acid BCA assay (Pierce Biotechnology) for total protein concentration."}},
  "note": "Values joined by “and” are separate entries in the source; they are usually repeats but may differ in a detail not shown here. Identical values can stand only once.",
  "data": [
    {"compound": "COC(=O)[C@@H](N)CSSC[C@H](N)C(=O)OC", "note": "[CDME, cystine dimethyl ester]", "values": [
      {"measurement": "% Apoptosis", "setting": "GM005399 cells", "value": 37.3, "unit": "%"},
      {"measurement": "percent of apoptotic cells (±S.D.)", "setting": "MCF-7 (ER+)", "value": "6.16 ± 1.80", "unit": "%"},
      {"measurement": "percent of apoptotic cells (±S.D.)", "setting": "MDA-MB-231 (ER−)", "value": "99.32 ± 0.22", "unit": "%"},
      {"measurement": "percent of apoptotic cells (±S.D.)", "setting": "MDA-MB-468 (ER−)", "value": "44.88 ± 13.52", "unit": "%"},
      {"measurement": "percent of apoptotic cells (±S.D.)", "setting": "T-47D (ER+)", "value": "7.78 ± 4.19", "unit": "%"},
      {"measurement": "effective dosage at which mice died", "setting": "black mice", "value": "≥ 5,000 mg CDME/kg body mass"},
      {"measurement": "Liver Cystine Concentration", "setting": "liver of black mice; 5,000 mg CDME/kg intraperitoneally, Mouse #1 and #2", "value": "230 nmol cystine/mg protein and 150 nmol cystine/mg protein"},
      {"measurement": "Liver Cystine Concentration", "setting": "liver of black mice; 10,000 mg CDME/kg intraperitoneally, Mouse #3", "value": 6.7, "unit": "nmol cystine/mg protein"}
    ]}
  ]
}
